Results taken from publication PMC8058733, “A pain killer without analgesic tolerance designed by co-targeting PSD-95-nNOS interaction and α2-containning GABAARs” (Theranostics, 2021).

Legend:
[1] = test system: SNL-induced thermal hyperalgesia; assay: SNL-induced thermal hyperalgesia, paw withdrawal latency; format: in vivo, mice; conditions: WT and nNOS-/- mice, ZL006 i.v., 20 mg/kg
Method: Neuropathic pain was induced by segmental spinal nerve ligation (SNL). Animals were anesthetized with isoflurane. After the loss of righting reflex, the animal was fixed in the prone position. The SNL model was prepared as described previously: a median skin incision with about 3-5 cm length in L4-S2 level of the mouse back was made, the muscles next to the vertebrae till the sixth lumbar protruding were separated, the L5/L6 joint protruding on the right side was exposed and excised, and L6 processus transversus was partially split so that the L4-L6 spinal nerves on the right side were exposed. L5 nerve was gently isolated and tightly ligated with 5-0 silk thread. […]
(§1) Paw withdrawal latency (PWL) response to thermal stimulus was assessed through the Hargreaves test. […] To record the PWL in response to thermal stimulus, each animal was measured five times with a 5-min interval, and the mean value was recorded after excluding maximal and minimum values. […]
(A) Time course of SNL-induced thermal hyperalgesia after treating with ZL006-05 (60 mg/kg, i.g.) in mice. Paw withdrawal latency response to thermal stimulation was detected at 0, 1, 2, 4, 6, 8, 10, 12 and 24 h after drug administration. ( B) Areas under the curve of paw withdrawal latency 0-24 h after treatment calculated from ( A) (F (1,16) = 43.07, ***p < 0.001, two-tailed t-test, n = 9). […]

[2] = test system: SNL-induced mechanical hyperalgesia; assay: SNL-induced mechanical hyperalgesia, von Frey; format: in vivo, mice; conditions: WT and nNOS-/- mice, ZL006 i.v., 20 mg/kg
Method: (§2) Neuropathic pain was induced by segmental spinal nerve ligation (SNL). Animals were anesthetized with isoflurane. After the loss of righting reflex, the animal was fixed in the prone position. The SNL model was prepared as described previously: a median skin incision with about 3-5 cm length in L4-S2 level of the mouse back was made, the muscles next to the vertebrae till the sixth lumbar protruding were separated, the L5/L6 joint protruding on the right side was exposed and excised, and L6 processus transversus was partially split so that the L4-L6 spinal nerves on the right side were exposed. L5 nerve was gently isolated and tightly ligated with 5-0 silk thread. The wound was closed with 4-0 silk thread suture and covered with iodine solution. After nerve ligation, animals with signs of paw clonus or autotomy were excluded from further experiments.
For mice, the threshold for 50% PWT response to mechanical stimulus was quantified by assessing the paw withdrawal threshold using von Frey filaments (Touch-Test TM Sensory Evaluator, North coast Medical, Inc.). Mice were placed individually in a plastic cage (4.5 × 5 × 11 cm) with a wire mesh bottom which allowed full access to the paws. Behavioral accommodation was allowed for 20-30 min until cage exploration and major grooming activities ceased. Mechanical threshold was measured by applying a von Frey filament to the ventral surface of the right hind paw until a positive sign of pain behavior was elicited. The paradigm for assessing the threshold was as follows. Von Frey filaments with logarithmically incremental stiffness (0.02-2 g) were applied serially to the paw by the up-down method. The filaments were presented, in ascending order of strength, perpendicular to the plantar surface with sufficient force to causes light bending against the paw and held for 4s. A positive response was noted if the paw was sharply withdrawn. Flinching immediately upon removal of the hair was also considered a positive response. The 2-g filament was selected as the upper limit cut-off for testing. If there was no response at 2-g filament, animals were assigned this cut-off value. The pattern of positive and negative withdrawal responses was converted to 50% threshold according to the formula: 50% PWT = 10 log (X) + κδ. X = value (in log unit) of the final von Frey hair used; κ is correction factors based on the pattern of responses from the calibration table; δ = mean difference in log units between stimuli (here, 0.224).

PSD-95-nNOS complex = biological target: T1, PSD-95-nNOS complex (Rattus norvegicus, UniProt P29476); assay: Co-IP of PSD-95-nNOS complex levels in the spinal dorsal horn after SNL; format: in vivo; conditions: SNL rats, ZL006 10 mg/kg, i.v.
T1 construct: dorsal spinal cord tissues (L4 and L5) were lysed in 400 μl RIPA; from tissue; host or cells: rat dorsal spinal cord (L4 and L5), SNL model
T1 sequence (P29476 whole entry, one chain of several): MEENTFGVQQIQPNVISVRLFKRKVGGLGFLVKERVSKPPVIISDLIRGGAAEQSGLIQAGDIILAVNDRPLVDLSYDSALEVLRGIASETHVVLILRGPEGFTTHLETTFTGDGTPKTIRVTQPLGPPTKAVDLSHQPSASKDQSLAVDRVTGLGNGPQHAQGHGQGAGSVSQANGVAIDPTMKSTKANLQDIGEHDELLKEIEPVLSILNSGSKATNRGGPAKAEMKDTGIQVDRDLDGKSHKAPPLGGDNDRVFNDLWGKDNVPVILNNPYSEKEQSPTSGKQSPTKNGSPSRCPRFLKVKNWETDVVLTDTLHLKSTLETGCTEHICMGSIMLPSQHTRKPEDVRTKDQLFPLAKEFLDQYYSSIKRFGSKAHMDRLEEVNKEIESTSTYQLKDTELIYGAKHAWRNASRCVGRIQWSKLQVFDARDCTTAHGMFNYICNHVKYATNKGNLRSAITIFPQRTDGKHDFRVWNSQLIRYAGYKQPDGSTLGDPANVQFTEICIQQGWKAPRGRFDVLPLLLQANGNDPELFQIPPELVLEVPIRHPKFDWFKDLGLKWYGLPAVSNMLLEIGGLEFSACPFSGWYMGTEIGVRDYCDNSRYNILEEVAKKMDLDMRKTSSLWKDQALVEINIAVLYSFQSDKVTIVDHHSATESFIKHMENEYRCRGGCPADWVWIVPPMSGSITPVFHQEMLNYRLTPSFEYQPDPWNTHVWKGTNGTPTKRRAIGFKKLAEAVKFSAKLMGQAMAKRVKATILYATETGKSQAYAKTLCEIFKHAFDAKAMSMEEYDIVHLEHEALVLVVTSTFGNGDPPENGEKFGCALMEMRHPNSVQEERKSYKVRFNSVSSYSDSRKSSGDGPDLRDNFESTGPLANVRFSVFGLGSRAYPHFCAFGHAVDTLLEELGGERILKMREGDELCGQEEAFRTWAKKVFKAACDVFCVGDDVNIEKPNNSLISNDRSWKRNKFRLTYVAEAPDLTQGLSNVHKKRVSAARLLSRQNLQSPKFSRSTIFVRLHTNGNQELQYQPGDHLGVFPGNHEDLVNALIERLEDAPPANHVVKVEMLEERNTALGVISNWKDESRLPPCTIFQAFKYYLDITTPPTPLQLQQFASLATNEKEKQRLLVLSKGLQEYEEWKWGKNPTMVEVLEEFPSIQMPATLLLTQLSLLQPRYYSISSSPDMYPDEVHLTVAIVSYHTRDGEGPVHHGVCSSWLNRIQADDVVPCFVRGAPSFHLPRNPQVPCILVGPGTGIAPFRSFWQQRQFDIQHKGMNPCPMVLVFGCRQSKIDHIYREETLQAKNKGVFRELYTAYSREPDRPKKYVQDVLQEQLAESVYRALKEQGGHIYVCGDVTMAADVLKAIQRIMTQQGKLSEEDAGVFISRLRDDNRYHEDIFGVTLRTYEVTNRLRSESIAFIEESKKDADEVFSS

[3] = test system: SNL-induced mechanical hyperalgesia; assay: SNL-induced mechanical hyperalgesia, paw withdrawal threshold; format: in vivo, rat; conditions: SNL rats, ZL006 0.2 mg/d intrathecal infusion × 11 days
Method: as §2
(§3) Osmotic minipumps (models 1004 for mouse and 2ML4 for rat; Alzet) and intrathecal cannulas (0.61 mm outer diameter and 0.28 mm inner diameter for mouse, 0.99 mm outer diameter and 0.58 mm inner diameter for rat) were filled with a solution of PBS. Cannulas were inserted into the subarachnoid space through the space between the L5 and L6 vertebrae and the tip of the catheter was implanted at the L5 spinal segmental level.
For rats, the threshold for 50% paw withdrawal (50% PWT) response to mechanical stimulus was assessed through a dynamic plantar apparatus (Ugo Basile, Italy). The 50% PWT refers to that the probability of paw withdrawal response to repeated mechanical stimulus is 50%. Rats were placed individually in a plastic cage (17 × 15 × 15 cm) with a wire mesh bottom which allowed full access to the paws. Behavioral accommodation was allowed for 15-20 min until cage exploration and major grooming activities ceased. A maximal cut-off of 50g/50s was set to prevent tissue damage. To record the PWT in response to mechanical stimulus, each rat was measured five times with a 5-min interval, and the mean value was recorded after excluding maximal and minimum values. The experimental procedures were performed in a double-blind manner.

[4] = test system: SNL-induced thermal hyperalgesia; assay: SNL-induced thermal hyperalgesia, paw withdrawal latency (Hargreaves); format: in vivo, rat; conditions: SNL rats, ZL006 0.2 mg/d intrathecal infusion × 11 days
Method: as §2
Osmotic minipumps (models 1004 for mouse and 2ML4 for rat; Alzet) and intrathecal cannulas (0.61 mm outer diameter and 0.28 mm inner diameter for mouse, 0.99 mm outer diameter and 0.58 mm inner diameter for rat) were filled with a solution of PBS. […]
as §1

[5] = test system: laminae I excitatory neurons in the SDH; assay: mIPSCs/mEPSCs recordings from acute spinal slices of chronically treated rats; format: in vivo, rat; conditions: SNL rats, ZL006 0.2 mg/d intrathecal × 11 days
Source text: as §3
All solutions were bubbled with 95% O2 -5% CO2.
For mPSCs measurements, whole-cell recordings were made from putative excitatory neurons in superficial dorsal horn using low-resistance pipettes (4-8 MΩ). Before mPSCs measurements, excitatory neurons were distinguished from inhibitory neurons by firing pattern analysis according to the established relationship between neuronal firing pattern and its neurotransmitter phenotype, [32]-[34] For mEPSCs measurement, the membrane potential was held at -60 mV. […] Tetrodotoxin (0.5 μM) and bicuculline (20 μM) were added to block action potentials and GABAA receptor-mediated currents respectively. For mIPSCs measurement, the membrane potential was held at -70 mV, microelectrodes were filled with internal pipette solution containing CsCl 140, HEPES 10.0, MgATP 4.0, NaGTP 3.0, EGTA 1.0, MgCl2 1.0, CaCl2 0.3 (in mM). […]. […] Each recording lasts more than 5 min. Data were analyzed using Mini software. Up to 120 events from each neuron were selected at a fixed sampling interval to generate cumulative probability.

neuropathic pain = test system: neuropathic pain; design: method as in PMID 32632774; conditions: treatment of neuropathic pain, chronic use; cited from earlier work

O=C(O)c1ccc(NCc2cc(Cl)cc(Cl)c2O)cc1O [ZL006]
Effect on SNL-induced thermal hyperalgesia [1]: attenuated both mechanical and thermal hyperalgesia markedly in WT but not in nNOS^-/- mice
Effect on SNL-induced mechanical hyperalgesia [2]: attenuated both mechanical and thermal hyperalgesia markedly in WT but not in nNOS^-/- mice
PSD-95-nNOS complex level in the SDH (PSD-95-nNOS complex): reversed the SNL-induced upregulation of PSD-95-nNOS interaction
Antinociceptive effect on mechanical hyperalgesia during chronic use (tolerance) [3]: decreased dramatically at d 7 and d 11, compared to d 1
Antinociceptive effect on thermal hyperalgesia during chronic use (tolerance) [4]: decreased dramatically at d 7 and d 11, compared to d 1
mEPSCs [5]: did not affect SNL-induced increase in miniature excitatory postsynaptic currents (mEPSCs)
mIPSCs frequency and amplitude ([5]; vs vehicle): significantly lower than that in vehicle-treated rats
Analgesic tolerance when used chronically (neuropathic pain): cause obvious analgesic tolerance
